Patent US10426790B2, “Treatment of allergic eye conditions with cyclodextrins” (Aldeyra Therapeutics, Inc., priority 2016, dated 2019)
Entries after “also recorded” stand apart in the source; their conditions may differ.

Assays:
[1] = tested on: subjects with allergic conjunctivitis to grass, tree or ragweed pollen (CAPT); assay: Phase IIa Conjunctival Allergen Provocation Test (CAPT) study, activity endpoints; format: in vivo, human; conditions: for efficacy in treating allergic conjunctivitis, result in words: clinical trial, topical ocular, four times daily about two weeks
Source text: The primary objective of the study is to evaluate the safety and activity of NS2, i.e., compound of structural formula (I), compared to vehicle in the treatment of moderate to severe allergic conjunctivitis in subjects allergic to grass, ragweed or tree allergens following approximately 2 weeks of treatment using the Conjunctival Allergen Provocation Test (CAPT) model.
This double-blind, vehicle-controlled, randomized, parallel group study allows for testing NS2 versus vehicle in subjects with grass, tree or ragweed-induced allergic conjunctivitis in CAPT model. This study consists of 7 or 8 visits to the clinic (a medical screening visit, a titrating CAPT visit, 1 or 2 confirmatory CAPT visits, a CAPT Onset of Action Visit, and three post-2 week dosing CAPT visits) over approximately 9 weeks.
At Visit 4, site staff will update concomitant medications and collect AEs as applicable. Ophthalmic evaluations are conducted (VA, SLE, subject rating of ocular symptoms, and staff grading of conjunctival redness and lid swelling). Subjects must have ocular itching scores of 0 in each eye and conjunctival redness scores of ≤1 in each eye in each region (nasal and temporal) of each eye in order to participate. […] 30 min prior to the CAPT procedure, clinic staff instills one drop of the randomized treatment into each eye. CAPT is then performed using the concentration titration than what reached the positive response at Visit 3 or 3B. Once the CAPT allergen is instilled, subject assessed symptoms and staff assessed signs are collected at 2.5 (+1 min—itching only), 5, 10, 15 min (+2 min), 30, 60, 90, 120, 150, 180 (+5 min). At the end of the visit, subjects are instructed and dispensed their randomized treatment for 2 weeks of at-home qid dosing and their diary card for recording their dosing, AEs, and concomitant medications. Subjects are scheduled to return for Visit 5 in 2 weeks.
(§1) At Visit 5, site staff will update concomitant medications and collect AEs as applicable. Ophthalmic evaluations are conducted (VA, SLE, subject rating of ocular symptoms, and staff grading of conjunctival redness and lid swelling). Approximately 10 μL of basal tears is collected from both eyes for cytokine analysis prior to drug instillation and CAPT. 30 min prior to the CAPT procedure, clinic staff instills one drop of the randomized treatment into each eye. CAPT is then performed using the concentration titration than what reached the positive response at Visit 3 or 3B. Once the CAPT allergen is instilled, subject assessed symptoms and staff assessed signs are collected at 2.5 (+1 min—itching only), 5, 10, 15 min (+2 min), 30, 60, 90, 120, 150, 180 min (+5 min). Following CAPT instillation, tear collection is begun at the 35 min (+15 min) mark, and approximately 10 μL of basal tears is collected from both eyes.
as §1, with “Visit 6,” for “Visit 5,”, “swelling).” for “swelling). Approximately 10 μL of basal tears is collected from both eyes for cytokine analysis prior to drug instillation and CAPT.”, “min).” for “min). Following CAPT instillation, tear collection is begun at the 35 min (+15 min) mark, and approximately 10 μL of basal tears is collected from both eyes.”
At Visit 7, site staff will update concomitant medications and collect AEs as applicable. Ophthalmic evaluations are conducted (VA, SLE, subject rating of ocular symptoms, and staff grading of conjunctival redness and lid swelling). 30 min prior to the CAPT procedure, clinic staff instills one drop of the randomized treatment into each eye. CAPT is then performed using the concentration titration than what reached the positive response at Visit 3 or 3B. […]

[2] = tested on: subjects with allergic conjunctivitis; assay: Phase IIa CAPT study, safety and tolerability; format: in vivo, human
Source text: Clinical Study Endpoints—Safety Endpoints: (1) number and severity of local and systemic reactions, and other adverse reactions; (2) vital signs; (3) slit lamp examination; (4) visual acuity; (5) non-contact tonometry; and (6) fundus examination.
Study Products and Randomization. For study purposes, NS2 0.5% and NS2 0.0% are both referred to as study drug. NS2 is formulated in eye drops for topical ocular use. The drug product is supplied as single dose unpreserved eye drops at an NS2 concentration of 0.5% (w/v). The formulation is 9.5% sulfobutylether-β-cyclodextrin (SBE-β-CD) in sterile water for injection buffered with sodium phosphate, dibasic and monobasic, and pH adjusted to 7.3.
Dose Administration. NS2 ophthalmic drops (0.5%) or NS2 ophthalmic drops (0.0%) Vehicle are provided as single use blow fill vials. One drop is instilled into each eye four times daily for approximately […].
Adverse Events. An adverse event (AE) is defined as any untoward medical occurrence associated with the use of a drug in humans, whether or not considered drug related. Disease signs, symptoms, and/or laboratory abnormalities already existing prior to the use of the product are not considered AEs after treatment unless they reoccur after the subject has recovered from the pre-existing condition or, in the opinion of the investigator, they represent a clinically significant exacerbation in intensity or frequency. AEs are collected from the time the subject signs the informed consent form until the completion of study. AEs reported prior to dosing are captured and considered non treatment emergent AEs.
Safety Analysis. Safety is evaluated via the following parameters: (a) AEs; (b) Vital signs; (c) Slit lamp examination; (d) Visual acuity; (e) Non-contact tonometry; and (f) Fundus examination.
Cyclodextrin Response in CAPT Model. Cyclodextrin was utilized as vehicle in a Randomized, Parallel, Single-Center, Double-Masked, Vehicle-Controlled Phase II Study to Evaluate the Activity of Study Drug NS2 (i.e., structural formula (I)) Ophthalmic Solution in Subjects with Allergic Conjunctivitis using the Conjunctival Allergen Provocation Test (CAPT). There were initial screening and titrating CAPT visits, followed by confirmatory CAPT visits where the allergen dose which reproducibly causes an ocular allergic reaction was selected. This allergen dose was utilized for the active dosing study phase. A CAPT Onset of Action Visit after a single dose of study drug to each eye on dosing Day 1, Visit 4 (V4), and three post-2 week dosing CAPT visits on active dosing days 14, 15 and 16, V5-7. NS2 and vehicle were dosed 4× daily for 16 days. 100 healthy men and women with at least a 2 year history of allergic conjunctivitis to grass, tree or ragweed pollen were enrolled, randomized 1:1, 50 on NS2 and 50 on vehicle containing cyclodextrin.
The allergic conjunctivitis Phase IIa trial was a randomized, parallel group, double-masked, vehicle-controlled design evaluating the activity of NS2 ophthalmic solution in subjects with allergic conjunctivitis. The trial utilized the Conjunctival Allergen Provocation Test, known as the CAPT, and was conducted at a single center, Inflamax Research in Ontario, Canada, which has considerable experience with the CAPT model.

[3] = 16 days of dosing four times per day, 50 subjects
[4] = CAPT, Day 1 single dose and multiple days dosing, NS2 0.5% vs vehicle (9.5% SBE-β-CD)

sulfobutylether-β-cyclodextrin
efficacy in treating allergic conjunctivitis, result in words [1]: high response rates and significant efficacy

CC(C)(O)c1nc2ccc(Cl)cc2cc1N [NS2]
patients of the drug group who withdrew from the study (stinging) [2, 3]: 2 patients
patients of the drug group who withdrew from the study (stinging), percent [2, 3]: 4%
stinging/burning adverse events reported as moderate ([2]; NS2 group): less than 10%
frequency of stinging and or burning ([2]; NS2 group vs vehicle): increased frequency
tolerability, result in words ([2]; topical ocular 0.5%, 4x daily, 16 days): generally well tolerated
serious adverse events ([2]; whole study): no serious adverse events
duration of clinical efficacy following each CAPT challenge ([1]; 3 hours studied after each CAPT challenge): ≥ 3 h
ocular itching score, result in words [1, 4]: statistically significant differences; also recorded: greater effect; also recorded: exceeding one point reductions
ocular tearing score, result in words [1, 4]: statistically significant differences; also recorded: greater effect; also recorded: exceeding one point reductions
lid swelling, frequency and pattern, result in words ([1]; CAPT, NS2 vs vehicle): appeared similar
efficacy in treating allergic conjunctivitis, result in words [1]: greater effect
